From US10370538B2 (priority 2015, dated 2019)
Entries after “also recorded” stand apart in the source; their conditions may differ.

Legend:
M. smegmatis = conditions: 10 μM, room temperature, 1 h, washed
Description: FIGS. 5A-5C illustrate freshly cultured E. coli (TOP10), S. pneumoniae, S. aureus, S. sanguinis, C. propinquum, C. striatum and M. smegmatis were incubated with PBS, 10 μM of TG, TG-DNB1 or TG-DNB2 at room temperature for 1 h. Cells were washed stringently with PBS for 3 times then fixed in 10% formalin solution for 30 min before vizualized with a confocal microscope (63×/oil, Ex/Em-FITC).
The fold increasing (F/FPBS) was calculated by normalizing against the fluorescence intensity of PBS-treated cells. Experiments were performed twice with similar results.
Freshly cultured E. coli (TOP10), E. coli expressing TEM1-β-lactamase, S. pneumoniae, S. aureus, S. sanguinis, C. propinquum, C. striatum, and M. smegmatis were incubated with PBS, 10 μM CDG1, CDG-DNB1, or CDG-DNB2 at room temperature for 1 h. Cells were washed 3 times PBS and then fixed in 10% formalin solution for 30 min before analyzed with a confocal microscope under 63×/oil, Ex/Em-FITC.
The fluorescence intensity of PBS treated cells of each strain was arbitrarily set as 1 to show the fold increasing (F/FPBS).

[1] = target: M. smegmatis DprE1 protein (Mycolicibacterium smegmatis, UniProt A0R607); assay: fluorescence labeling of purified DprE1 protein by dye-DNB analogues in the presence of M. smegmatis lysate; assay type: biochemical; conditions: for covalent fluorescence labeling of DprE1 protein: 10 μM probe, in the presence of M. smegmatis lysate
M. smegmatis DprE1 protein, sequence (A0R607 whole entry): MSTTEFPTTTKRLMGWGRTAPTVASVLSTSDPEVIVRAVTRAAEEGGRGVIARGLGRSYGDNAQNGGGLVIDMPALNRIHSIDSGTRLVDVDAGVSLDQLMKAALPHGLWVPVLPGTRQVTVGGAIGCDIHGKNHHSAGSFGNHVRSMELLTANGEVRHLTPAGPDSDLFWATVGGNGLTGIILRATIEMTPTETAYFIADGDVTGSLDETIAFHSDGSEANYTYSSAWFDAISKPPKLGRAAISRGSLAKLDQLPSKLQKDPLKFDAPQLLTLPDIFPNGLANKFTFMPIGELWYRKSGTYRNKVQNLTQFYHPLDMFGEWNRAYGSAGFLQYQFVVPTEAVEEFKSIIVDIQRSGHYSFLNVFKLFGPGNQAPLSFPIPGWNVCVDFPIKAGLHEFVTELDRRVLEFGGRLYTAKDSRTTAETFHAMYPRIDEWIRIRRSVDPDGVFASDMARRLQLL

mycobacteria = conditions: reported in the literature; cited from earlier work
BCG [2] = assay type: cell-based, Mycobacterium bovis; conditions: 10 μM, room temperature, 1 h, washed
[3] = system: Mycobacterium tuberculosis H37Rv; assay type: cell-based
BCG [4] = assay type: cell-based, Mycobacterium bovis; conditions: 10 μM, no washing
[5] = system: patients' clinical sputum samples; assay: staining of patients' processed sputum samples; assay type: cell-based; conditions: 10 μM, 1 h, room temperature
Description: FIG. 15 is a series of digital fluorescence confocal microscope images of CDG-DNB2 stained patients' processed sputum samples. Processed sputum samples were centrifuged and resuspended in 10 μM CDG-DNB2 for 1 h at room temperature. Cells were pelleted and washed stringently 3 times with PBS before fixation with 10% formalin for 30 min. Cells were further visualized using a confocal microscope at 20× or 60×/Ex 490-Em520.
Clinical study with CDG-DNB2: Probe CDG-DNB2 has been evaluated in patients' clinical sputum samples: 4 positive and 4 negative samples.

[6] = system: E. coli expressing TEM1-β-lactamase; assay type: cell-based

## COc1ccc(-c2c3ccc(=O)cc-3oc3cc(OCc4ccc(OCC5=C(C(=O)O)N6C(=O)[C@@H](NC(=O)Cc7ccccc7)[C@H]6SC5)cc4)ccc23)c(C)c1 [CDG-1]
M. smegmatis
  trapping of fluorescence signal in or on M. smegmatis cells: cannot be trapped in or on the cells

## Cc1cc(OCCn2cc(CNC(=O)c3cc([N+](=O)[O-])cc([N+](=O)[O-])c3)nn2)ccc1-c1c2ccc(=O)cc-2oc2cc(O)ccc12 [TG-DNB1]
[1]
  covalent fluorescence labeling of DprE1 protein: significantly higher labeling capability than did the two mononitro compounds; also recorded: a fluorescent band was observed

## C[C@H]1COC2(CCN(c3nc(=O)c4cc(C(F)(F)F)cc([N+](=O)[O-])c4s3)CC2)O1 [BTZ043]
mycobacteria
  antimycobacterial activity: potent antimycobacterial agents

## COc1ccc(OCCNC(=O)c2cc([N+](=O)[O-])cc([N+](=O)[O-])c2)cc1 [DNB1, reference compound]
mycobacteria
  antimycobacterial activity: potent antimycobacterial agents
[1]; DprE1SM incubated with 50 μM DNB1 for one hour prior to addition of TG-DNB1
  DprE1 labeling by TG-DNB analogues after pre-incubation with DNB1: abolished the band

## Cc1cc(OCCNC(=O)c2cc([N+](=O)[O-])cc([N+](=O)[O-])c2)ccc1-c1c2ccc(=O)cc-2oc2cc(OCc3ccc(OCC4=C(C(=O)O)N5C(=O)[C@@H](NC(=O)Cc6ccccc6)[C@H]5SC45CC5)cc3)ccc12 [CDG-DNB2]
BCG [2]
  staining of BCG (confocal): exhibited an intense (green) fluorescent signal
[3]
  fold increase of fluorescence intensity over control levels, H37Rv: about 20 fold
  staining of H37Rv (confocal): exhibited an intense (green) fluorescent signal
BCG [4]; imaged every 2.5 min from 5 min
  time at which prominent fluorescence was observed: 15 min
BCG [4]; time at which imaging was stopped
  continuous enhancement of fluorescence till: 75 min
[5]; 4 negative samples
  staining of negative sputum samples: all the negative samples had little background fluorescence
[5]; 4 positive samples
  staining of positive sputum samples: 4 positive samples all displayed green fluorescence-stained bacteria
[6]
  hydrolysis of probe by TEM1 β-lactamase-transformed E. coli: can hydrolyze CDG-DNB2 and generate the uncaged fluorescent signal
  retention of fluorescence in TEM1 β-lactamase-transformed E. coli: cannot retain the fluorescence

## Cc1cc(OCCNC(=O)c2cc([N+](=O)[O-])cc([N+](=O)[O-])c2)ccc1-c1c2ccc(=O)cc-2oc2cc(O)ccc12 [TG-DNB2]
[1]
  covalent fluorescence labeling of DprE1 protein: significantly higher labeling capability than did the two mononitro compounds; also recorded: a fluorescent band was observed
